Laboratory results as given in US10588906B2, “Method of preventing hair loss or promoting hair growth by using phosphodiesterase 3 inhibitor” (SEOUL NATIONAL UNIVERSITY HOSPITAL, priority 2017, dated 2020).

Columns and labels:
[1] = system: human hair follicle-derived hair dermal papilla cells (hDPCs); test: BrdU assay of cell division of hDPCs; assay type: cell-based; settings: 0 μM to 10 μM, 48 hours, versus negative control, FIG. 1
Procedure: To evaluate the effect of PDE on the proliferation of hair follicle cells, human hair follicle-derived hDPCs were treated with cilostazol, cilostamide, trequinsin, or milrinone, which are well-known PDE 3 inhibitors, and then subjected to a BrdU assay.
First, primarily cultured hDPCs were treated with cilostazol, cilostamide, trequinsin, or milrinone at a concentration of 0 μM to 10 μM, cultured for 44 hours, treated with a BrdU reagent, and then allowed to react for 4 hours. After culturing for a total of 48 hours, the presence or absence of luminescence was measured using a luminometer for detecting BrdU, and cell division and activation degrees of the hDPCs were identified by comparison with a negative control.

ERK signaling pathway = test: Western blotting of ERK phosphorylation in hDPCs; assay type: cell-based, human; settings: 1 μM, within 15 minutes, FIG. 2
Procedure: To identify the effects of PDE 3 inhibitors on an ERK signaling pathway, which is a key cell proliferation-associated signaling pathway, human hDPCs were treated with cilostazol, cilostamide, trequinsin, or milrinone at a concentration of 1 μM for 0 minute, 5 minutes, 15 minutes, and 60 minutes, and western blotting was performed thereon.

human hair follicles [2] = test: Ex vivo hair follicle organ culture test; settings: 1 μM or 10 μM, day 2, 4 and 6, versus negative control, FIG. 3A
Procedure: To evaluate the effects of PDE 3 inhibitors on human hair follicle growth, an ex vivo hair follicle organic culture test was performed using cilostazol. More particularly, to conduct the ex vivo hair follicle organic culture test, scalp tissues obtained from volunteers were divided into follicular units, and parts below sebaceous glands of the divided hair follicles were cut off and the remaining parts of the hair follicles were used. The prepared hair follicles were cultured in a culture medium containing a negative control reagent or 1 μM or 10 μM cilostazol, the length of hair growing on day 2, day 4, and day 6 was measured, and then a hair growth promotion effect of the human hair follicles was identified by comparison with a negative control.

human hair follicles [3] = test: Ki-67 immunofluorescence staining of cultured hair follicles; settings: cultured for two days, FIG. 3B
Procedure: In addition, to identify cell proliferation of the cultured hair follicles through the test, immunofluorescence staining was performed using antibodies against Ki-67, which is a cell division marker. The hair follicles were treated with cilostazol, cultured for two days, and made into a tissue section, the tissue section was cut to a thickness of 4 μm and fixed on a slide, followed by reaction with Ki-67 treated with primary antibodies and treatment with secondary antibodies with green fluorescence capable of detecting Ki-67, and then the resulting section was observed using a fluorescence microscope and photographed, and the number of Ki-67 positive cells was identified. In addition, the nuclei of the hair follicles was stained using a DAPI reagent.

C57BL/6 mice = test: Anagen induction test in C57BL/6 mouse model; assay type: in vivo; settings: 0.2 wt % or 1 wt % applied once a day for three weeks
Description: To identify hair growth effects by PDE 3 inhibitors, an anagen induction effect was examined using a C57BL/6 mouse model. Although the hair cycle of human hair varies depending on individuals, mice have the same hair cycle at an initial stage and all hairs enter into a telogen phase 7 weeks to 8 weeks after birth, which then turns into an anagen phase. To evaluate an anagen induction effect using these characteristics of mice, dorsal hairs of 8-week-old C57BL/6 mice in the telogen phase were removed, 0.2 wt % or 1 wt % of cilostazol was applied thereon once a day for three weeks, and then through comparison with a negative control and the case of 2 wt % of minoxidil as a positive control, the presence or absence of hair growth and an anagen induction degree were identified. In addition, skin tissue from which anagen hair grew was fixed with paraffin and stained with hematoxylin and eosin to conduct a histological examination, and the results thereof are shown in FIG. 5.

[4] = system: MAPK-associated proteins (ERK, JNK, P-38); test: Western blotting of MAPK-associated signaling proteins in mouse skin tissue; assay type: in vivo; settings: mouse skin tissue after anagen induction experiment, FIG. 6
Procedure: To verify the effect of a PDE 3 inhibitor on a MAPK-associated signaling pathway, which is a cell proliferation-associated signaling pathway, western blotting was performed using mouse skin tissue.

[5] = system: angiogenesis around hair follicles; test: CD31 immunofluorescence staining for angiogenesis around hair follicles; assay type: in vivo; settings: mouse skin tissue
Procedure: To verify the effect of a PDE 3 inhibitor on angiogenesis around hair follicles, immunofluorescence staining with CD31, which is a blood vessel marker protein, was performed. More particularly, mouse skin tissue of a negative control and mouse skin tissue on which cilostazol was applied were rapidly cryotreated and prepared into blocks, and then each block was cut into a tissue section having a thickness of 15 μm using a cryotome and immobilized on a slide. In addition, each tissue section was allowed to react with antibodies against CD31, which is a blood vessel marker protein, as primary antibodies, and then treated with secondary antibodies with green fluorescence capable of detecting CD31, and the resulting tissue sections were observed using a fluorescence microscope and photographed, and the area of blood vessels was measured using an image analysis program.

SMILES	cell division of the hDPCs (BrdU) [1]	phosphorylation of intracellular ERK proteins (ERK signaling pathway)	hair growth of the human hair follicles (length of hair) (human hair follicles [2])	cell division in the human hair follicles (Ki-67 positive cells) (human hair follicles [3])	proportion of a site on which anagen hair grew (C57BL/6 mice; FIG. 4)	formation of hair follicles (hematoxylin and eosin histology) (C57BL/6 mice; FIG. 5A)	anagen induction score (C57BL/6 mice; FIG. 5B)	skin thickness (C57BL/6 mice; FIG. 5C)	phosphorylation of the MAPK-associated signaling proteins (ERK, JNK, P-38) [4]	angiogenesis (CD31 staining) ([5]; FIG. 7A)	area of blood vessels ([5]; image analysis, FIG. 7B)
CN(C(=O)CCCOc1ccc2[nH]c(=O)ccc2c1)C1CCCCC1 [cilostamide]	significantly increased	increased									
O=C1CCc2cc(OCCCCc3nnnn3C3CCCCC3)ccc2N1 [cilostazol]	significantly increased	increased	promoted hair growth	increased	significantly increased	promoted	increases	increases	increased	induced	increased
Cc1[nH]c(=O)c(C#N)cc1-c1ccncc1 [milrinone]	significantly increased	increased									
COc1cc2c(cc1OC)-c1c/c(=N\c3c(C)cc(C)cc3C)n(C)c(=O)n1CC2 [trequinsin]	significantly increased	increased									
